Key:
[1] = Inhibition of COX2 expression in HCA-7 cells at 12 uM after 48 hrs by Western blot method relative to control; type: functional; conditions: Homo sapiens, HCA-7, 48 h
[2] = biological target: T1, Prostaglandin G/H synthase 2 (Homo sapiens) (UniProt P35354); experiment: Inhibition of COX2 in HCA-7 cells assessed as reduction in PGE2 release at 12 uM after 48 hrs by ELISA relative to control; type: cell-based
T1 sequence (whole entry): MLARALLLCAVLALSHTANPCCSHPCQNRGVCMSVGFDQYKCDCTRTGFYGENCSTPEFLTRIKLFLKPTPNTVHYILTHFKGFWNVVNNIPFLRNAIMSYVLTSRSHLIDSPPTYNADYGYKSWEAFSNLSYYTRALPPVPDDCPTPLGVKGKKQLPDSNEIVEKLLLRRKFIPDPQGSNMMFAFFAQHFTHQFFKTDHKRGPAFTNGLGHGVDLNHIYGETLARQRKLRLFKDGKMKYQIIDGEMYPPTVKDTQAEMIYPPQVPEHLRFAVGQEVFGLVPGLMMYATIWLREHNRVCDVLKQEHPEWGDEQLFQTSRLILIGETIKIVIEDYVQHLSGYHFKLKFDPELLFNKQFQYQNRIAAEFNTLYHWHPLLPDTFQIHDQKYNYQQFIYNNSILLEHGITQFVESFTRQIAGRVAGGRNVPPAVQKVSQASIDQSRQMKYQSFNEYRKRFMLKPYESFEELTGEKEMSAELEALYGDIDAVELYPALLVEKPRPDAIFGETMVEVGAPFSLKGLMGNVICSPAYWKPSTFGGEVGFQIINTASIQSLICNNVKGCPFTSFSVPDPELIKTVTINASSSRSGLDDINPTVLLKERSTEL

[3] = Inhibition of COX2 expression in HCA-7 cells at 1 mM after 48 hrs by Western blot method relative to control; type: functional; conditions: Homo sapiens, HCA-7, 48 h

SMILES | inhibition at 12 µM [1] [%] | inhibition [2] [%] | inhibition at 1000 µM [3] [%]
COc1ccc(/C=C2\COc3cc(O)cc(O)c3C2=O)cc1OC(C)=O | 8 | 11 | 
COc1ccc(/C=C2\COc3cc(O)c(O)c(O)c3C2=O)cc1O | 10 | 20 | 
CC(=O)Oc1ccccc1C(=O)O [ASPIRIN] |  |  | 12
